From patent publication US11279691B2, “Substituted pyridine and pyrazine compounds as PDE4 inhibitors” (Dart Neuroscience LLC, priority 2013, dated 2022)

The molecules below were run against T1, PDE4D3 (Homo sapiens, UniProt Q08499). Conditions: GST-tagged PDE4D3, 200 nM FAM-cAMP, 11-point dose-response; read-out: PD4d3 pEC50 (converted).
T1 construct: GST
Type: biochemical

T1 sequence (Q08499 1-673 isoform Q08499-2): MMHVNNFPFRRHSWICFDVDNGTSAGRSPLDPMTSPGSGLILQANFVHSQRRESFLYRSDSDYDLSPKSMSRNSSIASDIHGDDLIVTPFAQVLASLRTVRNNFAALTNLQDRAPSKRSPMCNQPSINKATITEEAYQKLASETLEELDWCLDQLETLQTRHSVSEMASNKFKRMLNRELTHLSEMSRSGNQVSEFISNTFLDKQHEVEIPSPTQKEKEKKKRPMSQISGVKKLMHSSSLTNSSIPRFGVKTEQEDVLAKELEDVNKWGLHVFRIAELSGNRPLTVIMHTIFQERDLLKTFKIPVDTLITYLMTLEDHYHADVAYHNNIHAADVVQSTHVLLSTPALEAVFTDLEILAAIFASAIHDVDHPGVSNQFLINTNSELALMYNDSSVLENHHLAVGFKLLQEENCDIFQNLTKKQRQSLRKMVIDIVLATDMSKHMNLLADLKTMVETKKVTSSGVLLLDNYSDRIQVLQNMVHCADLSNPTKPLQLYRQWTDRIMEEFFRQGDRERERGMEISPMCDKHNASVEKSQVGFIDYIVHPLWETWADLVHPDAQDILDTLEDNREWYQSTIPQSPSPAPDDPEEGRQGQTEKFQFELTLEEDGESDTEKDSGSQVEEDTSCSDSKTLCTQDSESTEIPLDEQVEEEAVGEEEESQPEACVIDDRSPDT

Compared with CCOc1ncc(Cn2cnc(CO)n2)cc1-c1cncc(Cl)c1 [Example 329, (1-{[5-(5-Chloropyridin-3-yl)-6-ethoxypyridin-3-yl]methyl}-1H-1,2,4-triazol-3-yl)methanol], CCOc1ncc(Cn2cnc(CO)n2)cc1-c1ccc(F)c(Cl)c1 [Example 337, (1-{[5-(3-Chloro-4-fluorophenyl)-6-ethoxypyridin-3-yl]methyl}-1H-1,2,4-triazol-3-yl)methanol] is lower in EC50: 1000 to 10000 nM for the first, < 100 nM for the second.

First: NC(=O)Cc1ncc(Cc2cnc(OCC(F)F)c(-c3cccc(Cl)c3)c2)cn1 [Example 371, 2-(5-{[5-(3-Chlorophenyl)-6-(2,2-difluoroethoxy)pyridin-3-yl]methyl}pyrimidin-2-yl)acetamide]
Second: NC(=O)Cc1ncc(Cc2cnc(OCC(F)(F)F)c(-c3cccc(Cl)c3)c2)cn1 [Example 370, 2-(5-{[5-(3-Chlorophenyl)-6-(2,2,2-trifluoroethoxy)pyridin-3-yl]methyl}pyrimidin-2-yl)acetamide]
The EC50 of the first is lower: < 100 nM for the first, 100 to 1000 nM for the second.

First: COc1ncc(Cc2cnc(OCC(C)(C)O)nc2)cc1-c1cccc(Cl)c1 [Example 318, 1-[(5-{[5-(3-Chlorophenyl)-6-methoxypyridin-3-yl]methyl}pyrimidin-2-yl)oxy]-2-methylpropan-2-ol]
Second: COc1ncc(Cc2cnc(CO)nc2)cc1-c1cccc(Cl)c1 [Example 299, (5-((5-(3-Chlorophenyl)-6-methoxypyridin-3-yl)methyl)pyrimidin-2-yl)methanol]
The EC50 of the first is higher: 1000 to 10000 nM for the first, < 100 nM for the second.

COc1ncc(Cc2cnc(N)nc2)cc1-c1ccc(F)c(C)c1 [Example 357, 5-{[5-(4-Fluoro-3-methylphenyl)-6-methoxypyridin-3-yl]methyl}pyrimidin-2-amine] and COc1ncc(Cc2cnc(N)nc2)cc1-c1ccc(Cl)c(F)c1 [Example 361, 5-{[5-(4-Chloro-3-fluorophenyl)-6-methoxypyridin-3-yl]methyl}pyrimidin-2-amine] fall in the same range of EC50: 100 to 1000 nM for the first, 100 to 1000 nM for the second.

CCOc1ncc(Cn2cnc(C(N)=O)c2)cc1-c1cccc(Cl)c1 [Example 310, 1-{[5-(3-Chlorophenyl)-6-ethoxypyridin-3-yl]methyl}-1H-imidazole-4-carboxamide] and CCOc1ncc(Cn2cnc(C(N)=O)c2)cc1-c1ccnc(OC(F)F)c1 [Example 311, 1-({5-[2-(Difluoromethoxy)pyridin-4-yl]-6-ethoxypyridin-3-yl}methyl)-1H-imidazole-4-carboxamide] fall in the same range of EC50: 100 to 1000 nM for the first, 100 to 1000 nM for the second.

Compared with COc1ncc(Cn2ccc(C(N)=O)n2)cc1-c1cccc(Cl)c1 [Example 308, 1-{[5-(3-Chlorophenyl)-6-methoxypyridin-3-yl]methyl}-1H-pyrazole-3-carboxamide], COc1ncc(Cn2nnnc2CO)cc1-c1cccc(Cl)c1 [Example 387, (1-{[5-(3-Chlorophenyl)-6-methoxypyridin-3-yl]methyl}-1H-1,2,3,4-tetrazol-5-yl)methanol] is higher in EC50: 100 to 1000 nM for the first, 1000 to 10000 nM for the second.

COc1ncc(Cn2nnc(CO)n2)cc1-c1ccc(F)c(F)c1 [Example 383, (2-{[5-(3,4-Difluorophenyl)-6-methoxypyridin-3-yl]methyl}-2H-1,2,3,4-tetrazol-5-yl)methanol] and COc1ncc(Cn2nnc(CO)n2)cc1-c1ccc(Cl)c(F)c1 [Example 385, (2-{[5-(4-Chloro-3-fluorophenyl)-6-methoxypyridin-3-yl]methyl}-2H-1,2,3,4-tetrazol-5-yl)methanol] fall in the same range of EC50: 100 to 1000 nM for the first, 100 to 1000 nM for the second.

First: COc1ncc(Cn2cc(CO)nc2C)cc1-c1cccc(Cl)c1 [Example 346, (1-{[5-(3-Chlorophenyl)-6-methoxypyridin-3-yl]methyl}-2-methyl-1H-imidazol-4-yl)methanol]
Second: CCOc1ncc(Cn2cc(CO)nc2C)cc1-c1cccc(Cl)c1 [Example 326, (1-{[5-(3-Chlorophenyl)-6-ethoxypyridin-3-yl]methyl}-2-methyl-1H-imidazol-4-yl)methanol]
The EC50 of the first is higher: 100 to 1000 nM for the first, < 100 nM for the second.

CCOc1ncc(Cn2cnc(CO)n2)cc1-c1cccc(F)c1 [Example 341, (1-{[6-Ethoxy-5-(3-fluorophenyl)pyridin-3-yl]methyl}-1H-1,2,4-triazol-3-yl)methanol] and CCOc1ncc(Cn2cnc(CO)n2)cc1-c1ccc(F)cc1 [Example 342, (1-{[6-Ethoxy-5-(4-fluorophenyl)pyridin-3-yl]methyl}-1H-1,2,4-triazol-3-yl)methanol] fall in the same range of EC50: 100 to 1000 nM for the first, 100 to 1000 nM for the second.

Compared with COc1ncc(Cc2ccc(C#N)cn2)cc1-c1cccc(Cl)c1 [Example 378, 6-{[5-(3-Chlorophenyl)-6-methoxypyridin-3-yl]methyl}pyridine-3-carbonitrile], COc1ncc(Cc2cnc(C)cn2)cc1-c1cccc(Cl)c1 [Example 377, 2-{[5-(3-Chlorophenyl)-6-methoxypyridin-3-yl]methyl}-5-methylpyrazine] is lower in EC50: 100 to 1000 nM for the first, < 100 nM for the second.

COc1ncc(Cc2cnc(N)cn2)cc1-c1ccc(Cl)c(F)c1 [Example 379, 5-{[5-(4-Chloro-3-fluorophenyl)-6-methoxypyridin-3-yl]methyl}pyrazin-2-amine] and COc1ncc(Cc2cnc(CC(N)=O)nc2)cc1-c1ccc(Cl)c(F)c1 [Example 366, 2-(5-{[5-(4-Chloro-3-fluorophenyl)-6-methoxypyridin-3-yl]methyl}pyrimidin-2-yl)acetamide] fall in the same range of EC50: 100 to 1000 nM for the first, 100 to 1000 nM for the second.

First: CCOc1ncc(Cn2nnc(C)n2)cc1-c1ccc(F)cc1 [Example 392, 2-Ethoxy-3-(4-fluorophenyl)-5-[(5-methyl-2H-1,2,3,4-tetrazol-2-yl)methyl]pyridine]
Second: COc1ncc(Cn2nnc(CO)n2)cc1-c1ccc(F)cc1 [Example 381, (2-{[5-(4-Fluorophenyl)-6-methoxypyridin-3-yl]methyl}-2H-1,2,3,4-tetrazol-5-yl)methanol]
The EC50 of the first is lower: < 100 nM for the first, 100 to 1000 nM for the second.

First: NC(=O)Cc1ncn(Cc2cnc(OC(F)F)c(-c3cccc(Cl)c3)c2)n1 [Example 372, 2-(1-{[5-(3-Chlorophenyl)-6-(difluoromethoxy)pyridin-3-yl]methyl}-1H-1,2,4-triazol-3-yl)acetamide]
Second: N#CCc1ncn(Cc2cnc(OC(F)F)c(-c3cccc(Cl)c3)c2)n1 [Example 285, 2-(1-{[5-(3-chlorophenyl)-6-(difluoromethoxy)pyridin-3-yl]methyl}-1H-1,2,4-triazol-3-yl)acetonitrile]
The EC50 of the first is lower: < 100 nM for the first, 100 to 1000 nM for the second.

First: COc1ncc(Cc2cnc(C(N)=O)nc2)cc1-c1ccc(F)cc1 [Example 374, 5-{[5-(4-Fluorophenyl)-6-methoxypyridin-3-yl]methyl}pyrimidine-2-carboxamide]
Second: COc1ncc(Cc2cnc(N)nc2)cc1-c1ccc(F)cc1 [Example 360, 5-{[5-(4-Fluorophenyl)-6-methoxypyridin-3-yl]methyl}pyrimidin-2-amine]
The EC50 of the first is higher: 100 to 1000 nM for the first, < 100 nM for the second.

CCOc1ncc(Cn2cnc(CO)n2)cc1-c1cc(F)cc(F)c1 [Example 338, (1-{[5-(3,5-Difluorophenyl)-6-ethoxypyridin-3-yl]methyl}-1H-1,2,4-triazol-3-yl)methanol] and CCOc1ncc(Cn2cnc(CO)n2)cc1-c1ccc(F)c(C)c1 [Example 331, (1-{[6-Ethoxy-5-(4-fluoro-3-methylphenyl)pyridin-3-yl]methyl}-1H-1,2,4-triazol-3-yl)methanol] fall in the same range of EC50: 100 to 1000 nM for the first, 100 to 1000 nM for the second.

First: CCOC(=O)Cc1ccc(Cc2cnc(OC)c(-c3cccc(Cl)c3)c2)cc1 [Intermediate 50, Ethyl 2-(4-{[5-(3-chlorophenyl)-6-methoxypyridin-3-yl]methyl}phenyl)acetate]
Second: COc1ncc(Cc2ccc(CC(N)=O)cc2)cc1-c1ccc(Cl)c(F)c1 [Example 365, 2-(4-{[5-(4-Chloro-3-fluorophenyl)-6-methoxypyridin-3-yl]methyl}phenyl)acetamide]
The EC50 of the first is higher: 100 to 1000 nM for the first, < 100 nM for the second.

COc1ncc(Cn2cc(CO)nc2C)cc1-c1ccc(F)cc1 [Example 344, (1-{[5-(4-Fluorophenyl)-6-methoxypyridin-3-yl]methyl}-2-methyl-1H-imidazol-4-yl)methanol] and CCOc1ncc(Cn2c(CO)cnc2C)cc1-c1cccc(Cl)c1 [Example 319, (1-{[5-(3-Chlorophenyl)-6-ethoxypyridin-3-yl]methyl}-2-methyl-1H-imidazol-5-yl)methanol] fall in the same range of EC50: 100 to 1000 nM for the first, 100 to 1000 nM for the second.

First: CCOc1ncc(Cn2cnc(CO)n2)cc1-c1ccnc(C(F)(F)F)c1 [Example 339, [1-({6-Ethoxy-5-[2-(trifluoromethyl)pyridin-4-yl]pyridin-3-yl}methyl)-1H-1,2,4-triazol-3-yl]methanol]
Second: CCOc1ncc(Cn2cnc(CO)n2)cc1-c1cccc(OC(F)(F)F)c1 [Example 333, [1-({6-Ethoxy-5-[3-(trifluoromethoxy)phenyl]pyridin-3-yl}methyl)-1H-1,2,4-triazol-3-yl]methanol]
The EC50 of the first is higher: 1000 to 10000 nM for the first, 100 to 1000 nM for the second.

Compared with Nc1ncn(Cc2cnc(OC(F)F)c(-c3cccc(Cl)c3)c2)n1 [Example 218, 1-{[5-(3-Chlorophenyl)-6-(difluoromethoxy)pyridin-3-yl]methyl}-1H-1,2,4-triazol-3-amine], CCOc1ncc(Cn2nnnc2C)cc1-c1cccc(OC(F)F)c1 [Example 399, 3-[3-(Difluoromethoxy)phenyl]-2-ethoxy-5-[(5-methyl-1H-1,2,3,4-tetrazol-1-yl)methyl]pyridine] is lower in EC50: 100 to 1000 nM for the first, < 100 nM for the second.

First: COc1ncc(Cc2cnc(NCCO)cn2)cc1-c1cccc(Cl)c1 [Example 290, 2-((5-((5-(3-Chlorophenyl)-6-methoxypyridin-3-yl)methyl)pyrazin-2-yl)amino) ethanol]
Second: COc1ncc(Cc2cnc(N3CCOCC3)nc2)cc1-c1cccc(Cl)c1 [Example 292]
The EC50 of the first is lower: < 100 nM for the first, 1000 to 10000 nM for the second.

Compared with CCOc1ncc(Cn2nnnc2C)cc1-c1cc(F)cc(OC)c1 [Example 402, 2-Ethoxy-3-(3-fluoro-5-methoxyphenyl)-5-[(5-methyl-1H-1,2,3,4-tetrazol-1-yl)methyl]pyridine], CCOc1ncc(Cn2cnc(CO)n2)cc1-c1cccc(N(C)C)c1 [Example 335, [1-({5-[3-(Dimethylamino)phenyl]-6-ethoxypyridin-3-yl}methyl)-1H-1,2,4-triazol-3-yl]methanol] is higher in EC50: 100 to 1000 nM for the first, 1000 to 10000 nM for the second.

CCOc1ncc(Cc2cnc(N)nc2)nc1-c1ccc(F)c(F)c1 [Example 293, 5-((6-(3,4-difluorophenyl)-5-ethoxypyrazin-2-yl)methyl)pyrimidin-2-amine] was tested, and the EC50 was < 100 nM.
